Patent US12600728B2, “Interleukin-17 inhibitors” (priority 2020, dated 2026)
Read-outs that look alike come from different tables or passages of the source.

Experiments:
[1] = target: biotinylated human IL-17A / AF647-labeled human IL-17RA (Homo sapiens, UniProt Q16552); assay: Human IL-17A×IL-17RA TR-FRET assay; assay type: binding; conditions: TR-FRET
Experimental: Human IL-17A×IL-17RA TR-FRET Assay
Each compound concentration is tested in duplicate.
The final total assay volume is 10 μL.
Each plate contains test compounds in columns 1-22 and controls in columns 23 and 24. The neutral control (NC) contains all the assay components, but DMSO instead of test compound. […] The fluorescence values for emission at 615 nm and 665 nm are loaded to the evaluation software Helios.
From the activity data at each compound concentration, the IC50 values are obtained using the 4-parameter logistic function (“Hill-slope model”) of Helios.

[2] = target: recombinant human IL-17AA (Homo sapiens, UniProt Q16552); assay: IL-6 release from NHDF cells, IL-17AA plus TNF-α stimulation; assay type: cell-based; conditions: NHDF cells, 24 hours, IL-6 by ELISA
recombinant human IL-17AA, sequence (Q16552 24-155): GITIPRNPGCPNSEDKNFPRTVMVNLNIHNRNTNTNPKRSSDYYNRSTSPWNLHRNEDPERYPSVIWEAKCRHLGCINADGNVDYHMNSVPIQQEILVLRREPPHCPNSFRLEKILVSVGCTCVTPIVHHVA
Experimental: IL-6 Release from NHDF Cells (Normal Human Dermal Fibroblasts)
NHDF cells isolated from normal adult mesoderm, connective tissues were cultured in fibroblast growth medium containing 2% supplement. […] The cells were allowed to adhere overnight before they were incubated with the compound/cytokine cocktail.
Diluted compounds were pre-incubated with recombinant human IL-17AA or IL-17AF plus human TNF-α for 30 minutes at room temperature on a shaker. […] The cells were incubated with the compound/cytokines cocktail for 24 hours at 37° C. (5% CO2). […] The final DMSO or plasma concentrations were 0.1% or 20%, respectively. All compound incubations were done in duplicate. The supernatants were collected to quantify IL-6 by ELISA according to the manufacturers instructions. The optical density was measured at 450 nm by an EnVision Multilabel Plate Reader (Perkin Elmer). The IL-6 levels produced after TNF-α stimulation were subtracted from the IL-6 produced after IL-17/TNF-α co-stimulation. These IL-17-specific IL-6 concentrations were used for […] value calculation.

[3] = biotinylated human IL-17A 5 nM, AF647-labeled human IL-17RA 30 nM, read-out: IL17AA FRET/ IL17Rawt IC50
[4] = IL-17AA 30 pM plus TNF-α 6 pM, read-out: IL17AA + TNF IC50 IL-6
[5] = 5 nM IL-17A, 30 nM IL-17RA, read-out: IL17AA FRET/ IL17Rawt IC50
[6] = 5 nM IL-17A, 30 nM IL-17RA, reference examples (pyridines), read-out: IL17AA FRET/ IL17RAwt IC50

biotinylated human IL-17A / AF647-labeled human IL-17RA, sequence (Q16552 24-155): as above

IC50 [2, 4] [nM] | IC50 [1, 5] [nM] | Structure (SMILES) | further results
232 | – | CCc1nocc1C(=O)N[C@H](C(=O)Nc1ccc(-c2c(C)cc[n+]([O-])c2C)cc1)C1CCC(F)(F)C1 (mixture of isomers) [Example 86, 3-(4-((2S)-2-(3,3-difluorocyclopentyl)-2-(3-ethylisoxazole-4-carboxamido)acetamido)phenyl)-2,4-dimethylpyridine 1-oxide] | IC50 [1, 3]: 119 nM
8 | – | Cc1c(-c2ccc(NC(=O)[C@@H](NC(=O)c3ccnn3C)[C@H]3CCCC(F)(F)C3)cc2F)c(Cl)cc[n+]1[O-] [Example 110, 4-chloro-3-(4-((S)-2-((S)-3,3-difluorocyclohexyl)-2-(1-methyl-1H-pyrazole-5-carboxamido)acetamido)-2-fluorophenyl)-2-methylpyridine 1-oxide] | –
– | 502 | Cc1cc[n+]([O-])c(C)c1-c1ccc(NC(=O)C(NC(=O)c2ccc3n2CCN(C)C3)C(C)c2ccccc2Cl)cc1 (centres unmarked) [Example 212, 3-(4-(3-(2-chlorophenyl)-2-(2-methyl-1,2,3,4-tetrahydropyrrolo[1,2-a]pyrazine-6-carboxamido)butanamido)phenyl)-2,4-dimethylpyridine 1-oxide] | –
– | 2310 | Cc1cc[n+]([O-])c(C)c1-c1ccc(NC(=O)C(NC(=O)c2ccc3n2CCNC3)C2CCC(C)CC2)cc1 [Example 220, 2,4-dimethyl-3-(4-((S)-2-((1r,4S)-4-methylcyclohexyl)-2-(1,2,3,4-tetrahydropyrrolo[1,2-a]pyrazine-6-carboxamido)acetamido)phenyl)pyridine 1-oxide] | –
– | 7290 | Cc1cc[n+]([O-])c(C)c1-c1ccc(NC(=O)C(NC(=O)c2ccnn2C)C2CC(F)CC(F)C2)cc1 (centres unmarked) [Example 222, 3-(4-(2-(3,5-difluorocyclohexyl)-2-(1-methyl-1H-pyrazole-5-carboxamido)acetamido)phenyl)-2,4-dimethylpyridine 1-oxide] | –

More lines, now with the values behind:

Structure (SMILES) | IC50 [2, 4] [nM] | IC50 [1, 5] [nM] | further results
Cc1c(-c2ccc(NC(=O)[C@@H](NC(=O)c3ccnn3C)C3CCCCC3)cc2F)c(Cl)cc[n+]1[O-] (single isomer, unassigned) [Example 2a] | 37 | – | IC50 [1, 3]: 49 nM
Cc1c(-c2ccc(NC(=O)[C@@H](NC(=O)c3ccnn3C)C3CCCCC3)cc2F)c(Cl)cc[n+]1[O-] (single isomer, unassigned) [Example 2b] | 14 | – | IC50 [1, 3]: 17 nM
Cc1cc[n+]([O-])c(C)c1-c1ccc(NC(=O)[C@@H](NC(=O)c2ccnn2C)[C@H]2CC=C(F)CC2)cc1 (single isomer, unassigned) [Example 12a, 3-(4-((S)-2-((R)-4-fluorocyclohex-3-en-1-yl)-2-(1-methyl-1H-pyrazole-5-carboxamido)acetamido)phenyl)-2,4-dimethylpyridine 1-oxide or 3-(4-((S)-2-((S)-4-fluorocyclohex-3-en-1-yl)-2-(1-methyl-1H-pyrazole-5-carboxamido)acetamido)phenyl)-2,4-dimethylpyridine 1-oxide] | 17 | – | IC50 [1, 3]: 112 nM
Cc1nocc1C(=O)NC(C(=O)Nc1ccc(-c2c(Cl)cc[n+]([O-])c2C)cc1)C1CC2CC2C1 (single isomer, unassigned) [Example 146] | – | – | IC50 ([2]; IL-17AA 30 pM + TNF-α 6 pM, read-out: IL17AA + TNF IC50 IL-6): 57 nM
Cc1c(-c2ccc(NC(=O)[C@@H](NC(=O)c3ccnn3C)C3CCCCC3)cc2F)ccc[n+]1[O-] [Example 83, (S)-3-(4-(2-cyclohexyl-2-(1-methyl-1H-pyrazole-5-carboxamido)acetamido)-2-fluorophenyl)-2-methylpyridine 1-oxide] | 115 | – | –
Cc1c(-c2ccc(NC(=O)C(NC(=O)c3ccc4n3CCNC4)[C@@H]3C[C@@H]4[C@H](C3)C4(F)F)cc2)c(Cl)cc[n+]1[O-] (stereo partly drawn) [Example 211, 4-chloro-3-(4-(2-((1R,3s,5S)-6,6-difluorobicyclo[3.1.0]hexan-3-yl)-2-(1,2,3,4-tetrahydropyrrolo[1,2-a]pyrazine-6-carboxamido)acetamido)phenyl)-2-methylpyridine 1-oxide] | – | 499 | –
Cc1cc[n+]([O-])c(C)c1-c1ccc(NC(=O)[C@@H](NC(=O)c2ccc3n2CCN(C)C3)C2CCC(F)CC2)cc1 (stereo partly drawn) [Example 214, 3-(4-((2S)-2-(4-fluorocyclohexyl)-2-(2-methyl-1,2,3,4-tetrahydropyrrolo[1,2-a]pyrazine-6-carboxamido)acetamido)phenyl)-2,4-dimethylpyridine 1-oxide] | – | 690 | –
Cc1cc[n+]([O-])c(C)c1-c1ccc(NC(=O)[C@@H](NC(=O)c2ccc3n2CCNC3)C(C)c2ccccc2Cl)cc1 (stereo partly drawn) [Example 216, 3-(4-((2S)-3-(2-chlorophenyl)-2-(1,2,3,4-tetrahydropyrrolo[1,2-a]pyrazine-6-carboxamido)butanamido)phenyl)-2,4-dimethylpyridine 1-oxide] | – | 796 | –
CCn1nccc1C(=O)N[C@H](C(=O)Nc1ccc(-c2c(C(F)(F)F)cc[n+]([O-])c2C)cc1)C1CC2CC2C1 (stereo partly drawn) [Example 223, 3-(4-((2S)-2-(bicyclo[3.1.0]hexan-3-yl)-2-(1-ethyl-1H-pyrazole-5-carboxamido)acetamido)phenyl)-2-methyl-4-(trifluoromethyl)pyridine 1-oxide] | – | 9080 | –
Cc1nccc(Cl)c1-c1ccc(NC(=O)[C@@H](NC(=O)c2ccnn2C)C2CCCCC2)cc1F [compound 137, N-((1S)-2-((4-(4-chloro-2-methylpyridin-3-yl)-3-fluorophenyl)amino)-1-cyclohexyl-2-oxoethyl)-1-methyl-1H-pyrazole-5-carboxamide, reference compound] | – | – | IC50 ([2]; IL-17AA 30 pM + TNF-α 6 pM, reference examples (pyridines), read-out: IL 17AA + TNF IC50 IL-6): 578 nM
CCc1nocc1C(=O)N[C@H](C(=O)Nc1ccc(-c2c(Cl)ccnc2C)cc1)[C@H]1CCCC(F)(F)C1 [compound 140, N-((S)-2-((4-(4-chloro-2-methylpyridin-3-yl)phenyl)amino)-1-((S)-3,3-difluorocyclohexyl)-2-oxoethyl)-3-ethylisoxazole-4-carboxamide, reference compound] | – | – | IC50 [1, 6]: 1220 nM
CCn1nccc1C(=O)N[C@H](C(=O)Nc1ccc(-c2c(C)ccnc2C)cc1)[C@H]1CC[C@H](C(F)(F)F)CC1 [compound 141, N-((S)-2-((4-(2,4-dimethylpyridin-3-yl)phenyl)amino)-2-oxo-1-((1r,4S)-4-(trifluoromethyl)cyclohexyl)ethyl)-1-ethyl-1H-pyrazole-5-carboxamide, reference compound] | – | – | IC50 [1, 6]: 2630 nM
CCc1nocc1C(=O)N[C@H](C(=O)Nc1ccc(-c2c(C)ccnc2C)cc1)[C@H]1CC[C@H](C(F)(F)F)CC1 [compound 142, N-((S)-2-((4-(2,4-dimethylpyridin-3-yl)phenyl)amino)-2-oxo-1-((1r,4S)-4-(trifluoromethyl)cyclohexyl)ethyl)-3-ethylisoxazole-4-carboxamide, reference compound] | – | – | IC50 [1, 6]: 4380 nM
Cc1nocc1C(=O)N[C@H](C(=O)Nc1ccc(-c2c(C(F)(F)F)ccnc2C)cc1)[C@H]1CCCC(F)(F)C1 [compound 143, N-((S)-1-((S)-3,3-difluorocyclohexyl)-2-((4-(2-methyl-4-(trifluoromethyl)pyridin-3-yl)phenyl)amino)-2-oxoethyl)-3-methylisoxazole-4-carboxamide, reference compound] | – | – | IC50 [1, 6]: 851 nM
